The values that follow come from patent publication US4598070A, “Tripamide and cyclodextrin inclusion compound” (Eisai Co., Ltd., priority 1983, dated 1986).

Molecules are shown by their SMILES. ≈ marks a conversion by molar mass, not a printed value. Where two headings read alike, the source gives them in different places.

The data set can be described thus: Solubility of tripamide in water, Liquid I or Liquid II of the Japanese Pharmacopeia (37° C., 5 days, absorbancy method). The class given is physicochemical. Conditions: for solubility at 120 h: 37° C., 5 days, as tripamide, Experiment 2. The protocol: The inclusion compound prepared in accordance with the process described in Example 1 was used as a sample. This sample was prepared by the reaction of 1 mole of tripamide and 3 moles of β-cyclodextrin. For purpose of comparison, tripamide per se was used.
The sample was accurately weighed 100 mg as tripamide and mixed with water, Liquid I of the Japanese Pharmacopeia or Liquid II of the Japanese Pharmacopeia. The mixture was stirred at 37° C. in a warm bath for 5 days. Tripamide, dissolved in the solution, was measured by the absorbancy method.
That is, each of the tripamide solutions in water, Liquid I of the Japanese Pharmacopeia and Liquid II of the Japanese Pharmacopeia was filtered using a millipore filter of 1.2 μm and 1 ml each of the solutions after filtration was taken out. In the case of the solution using Liquid I of the Japanese Pharmacopeia, the solution was further diluted with Liquid I of the Japanese Pharmacopeia to make a 100 ml solution and 5 ml taken out of the resulting solution was further diluted to 50 ml with a 0.1N hydrochloric acid-methanol solution followed by measurement at 244 nm. In the case of each of the solutions in water and Liquid II of the Japanese Pharmacopeia, the solution was diluted to 100 ml with Liquid II of the Japanese Pharmacopeia followed by measurement at 233 nm. […]

`NS(=O)(=O)c1cc(C(=O)NN2C[C@@H]3[C@@H]4CC[C@@H](C4)[C@@H]3C2)ccc1Cl` [Tripamide, N-(4-A2a-endo-tricyclo[5.2.1.0^2.6. ]decan-4-yl)-4-chloro-3-sulfamoylbenzamide]: the solubility at 120 h (Water, read-out: Solubility (mg/ml), Water) turned out to be 0.0094 mg/mL (≈ 25.4 µM); the solubility at 120 h (jp liquid i, pH 1.2, Liquid I of the Japanese Pharmacopeia, pH about 1.2, read-out: Solubility (mg/ml), Japanese Pharmacopeia Liquid I) worked out at 0.349 mg/mL (≈ 944 µM); the solubility at 120 h (jp liquid ii, pH 7.5, Liquid II of the Japanese Pharmacopeia, pH about 7.5, read-out: Solubility (mg/ml), Japanese Pharmacopeia Liquid II) amounted to 0.0144 mg/mL (≈ 38.9 µM). The “solubility in water, Liquid I and Liquid II (in words)” value (water, Liquid I and Liquid II of the Japanese Pharmacopoeia, sample for comparison) was “low”. Besides, under “water, background statement”, the “solubility in water (in words)” value was “soluble in water only with extreme difficulty”.
